Where two headings read alike, the source gives them in different places.
Tests used:
[1] = test system: ceramide-activated protein kinase
[2] = test system: ceramide-activated protein kinase; assay: EGFR peptide phosphorylation by kinase in A-431 microsomal membranes / postnuclear supernatant; assay type: biochemical, human (A-431 epidermoid carcinoma cells); details: words
Procedure: Kinetics of ^32 Pi incorporation into the EGFR peptide. […] The reaction was initiated by addition of 50 μl of [γ-^32 P]ATP (150 μM final concentration) and terminated by addition of 50 μl of 0.5 M ATP in 90% (vol/vol) formic acid. Samples were spotted on phosphocellulose paper, washed with 1 M acetic acid/4 mM pyrophosphate, and ^32 P incorporation was measured by liquid-scintillation counting, as described. A boiled protein blank was subtracted from each data value. The data (means) represent duplicate samples from one of two similar experiments. […]
Kinetics of ceramide-induced ^32 Pi incorporation into EGFR peptide. Peptide phosphorylation was done as described in FIG. 2 in the absence (.smallcircle.) or presence (.circle-solid.) of 0.5 μM C8 -ceramide. Phosphorylated peptide was resolved by HPLC. Values (means) represent data from three experiments.
Concentration-dependence of ceramide-induced ^32 Pi incorporation into EGFR peptide. Peptide phosphorylation reactions were done as described for FIG. 2, for 2 minutes, using various concentrations of ceramide (0.001-3 μM). Phosphorylated peptide was resolved by HPLC. Values (means) represent data from three experiments. […]
Phosphorylation was initiated at 22° C. by addition of 50 μl of [γ-^32 P] ATP (150 μM final concentration; 4000 dpm/pmol). For studies with lipid activators, ceramide and other lipids were dried under N2 and resuspended in the kinase assay buffer by bath sonication for 2 minutes at 37° C.
Phosphorylated peptide was quantified by two separate methods. For initial studies, samples were spotted on phosphocellulose paper, washed in 1 M acetic acid/4 mM pyrophosphate and subjected to liquid scintillation counting, according to methods well known to those skilled in the art. Values obtained from a boiled blank or a sample lacking peptide were subtracted from each determination. Alternatively, HPLC was done according to methods well known to those skilled in the art. For these studies, samples were first applied to a C18 Sep-Pak cartridge and eluted with 99.9% acetonitrile/0.1% trifluoroacetic acid. The eluates were lyophilized, resuspended in 6 M guanidine hydrochloride/200 mM Tris, pH 8.5 and applied to a C18 reverse-phase column (Dynamax, 4.6 mm i.d., Rainin, Woburn, Mass.). The peptide was eluted with a linear gradient (1% per minute) of acetonitrile at a flow rate of 1 ml/minute and was detected by measuring the Cerenkov radiation associated with 1-ml fractions.

EL-4 cells = assay: Sphingomyelin and ceramide levels in intact EL-4 cells; assay type: cell-based, murine; details: maximally effective concentrations (n=5)
Procedure: IL-1β effects on sphingomyelin levels in EL4 cells. Time course (A) and dose response (B). Cells were grown to growth arrest (1-1.5×10^6 cells ml^-1) in DME/Ham's F12 medium (1:1, v/v) containing 10% horse serum and for 48 hours [^3 H]choline (1 μCi ml^-1). On the day of an experiment, cells were resuspended back into the same medium at 10×10^6 cells ml^-1 and stimulated with 40 ng ml^-1 IL-1β for the indicated times (A) or for 30 minutes with increasing concentrations of IL-1β (B). Human IL-1β may be obtained using methods well known to those skilled in the art. Reactions were terminated with CHCl3 :CH3 OH:HCl (100:100:1) containing 10 mM EDTA (82). Lipids in the organic phase extract were dried under N2 and subjected to mild alkaline hydrolysis (0.1 M methanolic KOH for 1 hour at 37° C.) to remove glycerophospholipids. Sphingomyelin was resolved by thin-layer chromatography (TLC) using CHCl3 :CH3 OH:CH3 COOH:H2 O (60:30:8:5) as solvent, identified by iodine vapor staining, and quantified by liquid scintillation spectrometry. As previously reported, the use of [^3 H]choline as a measure of sphingomyelin content was validated by simultaneous phospholipid phosphorus measurements. Each value represents the mean±SEM of triplicate determinations from four experiments in (A), and one representative of four similar studies performed in triplicate in (B).
Effect of IL-1β on ceramide levels in EL-4 cells. Cells were stimulated as in FIG. 12 with IL-1β (40 ng ml^-1) and ceramide contained within the organic phase extract quantified enzymatically using the E. coli diacylglycerol kinase reaction. Lipids were resolved by TLC using CHCl3 :CH3 OH:CH3 COOH (65/15/5) as solvent, autoradiographed and quantified by liquid scintillation spectrometry. Each value represents the mean±SEM of triplicate determinations from 10 experiments.
The murine thymoma EL-4 cell line is a well-defined IL-1 responsive cell line that expresses functional IL-1 receptors. Upon stimulation with IL-1, these cells up-regulate the IL-2 receptor and secrete IL-2 [62]. Initial studies were designed to investigate the effects of IL-1β on cellular sphingomyelin content. Cells, grown in Dulbecco's Modified Eagle's (DME)/Ham's F-12 medium containing 10% horse serum and [^3 H]choline (1 μCi ml^-1), were resuspended back into the same medium at 10×10^6 cells ml^-1 and stimulated with IL-1β. IL-1β is commercially available.

KSR = target: T1, KSR (Mus musculus, UniProt Q61097); assay: KSR activity toward Raf-1 peptides in vitro; assay type: biochemical, mouse (KSR immunoprecipitated from COS-7 cells); parameters: Raf-1 peptides as substrate; details: for KSR activity towards substrate peptide: 30 nM ceramide, 5 min
T1 sequence (Q61097 1-873): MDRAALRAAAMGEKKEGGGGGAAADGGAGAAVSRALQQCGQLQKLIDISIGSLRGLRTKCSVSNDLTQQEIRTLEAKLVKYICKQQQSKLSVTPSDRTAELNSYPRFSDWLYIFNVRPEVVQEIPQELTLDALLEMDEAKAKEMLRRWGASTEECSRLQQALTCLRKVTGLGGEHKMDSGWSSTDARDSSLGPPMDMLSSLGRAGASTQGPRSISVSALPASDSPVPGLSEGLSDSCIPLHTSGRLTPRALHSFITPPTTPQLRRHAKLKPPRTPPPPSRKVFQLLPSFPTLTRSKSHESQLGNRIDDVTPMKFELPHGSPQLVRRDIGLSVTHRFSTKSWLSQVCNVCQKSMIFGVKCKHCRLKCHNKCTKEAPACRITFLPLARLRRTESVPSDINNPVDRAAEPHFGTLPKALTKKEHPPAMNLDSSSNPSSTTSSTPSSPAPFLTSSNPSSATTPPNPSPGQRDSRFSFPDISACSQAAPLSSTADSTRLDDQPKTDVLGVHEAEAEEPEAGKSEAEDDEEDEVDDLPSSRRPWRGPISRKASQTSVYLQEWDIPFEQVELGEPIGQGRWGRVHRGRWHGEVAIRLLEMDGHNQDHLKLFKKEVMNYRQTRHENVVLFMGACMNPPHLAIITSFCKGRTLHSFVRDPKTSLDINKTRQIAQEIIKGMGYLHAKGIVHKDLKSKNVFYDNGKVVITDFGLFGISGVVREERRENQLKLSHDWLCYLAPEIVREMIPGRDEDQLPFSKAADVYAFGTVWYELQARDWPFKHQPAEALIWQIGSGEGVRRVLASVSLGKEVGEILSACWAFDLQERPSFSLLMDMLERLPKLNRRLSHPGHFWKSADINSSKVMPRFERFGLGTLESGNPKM
Procedure: The wild type peptide contains eight potential phosphorylation sites (shown in bold). Substitution of alanines and glycines for serines and threonines generated one peptide (TTLP-peptide) containing only two potential phosphorylation sites (Thr^268,269) and another peptide (AALP-peptide) with no potential phosphorylation sites.
FIG. 28A--Flag-tagged KSR was immunoprecipitated from 0.2 mg COS-7 lysate, and assayed with TTLP- or AALP-peptides in the presence of 30 nM ceramide (Avanti) or diluent (DMSO). Background counts per minute (cpm) derived from samples incubated with the AALP-peptide which contains no phosphorylation sites were subtracted from all points. Background cpm always represented less than 25% of the untreated total.
FIG. 28B--Flag-tagged KSR immunoprecipitated from 0.2 mg COS-7 lysate was assayed with TTLP- or AALP-peptides in the presence of ceramide or diluent for 45 min as described in FIG. 7A.
FIG. 28C--Flag-tagged KSR was immunoprecipitated from 0.15 mg COS-7 lysate and assayed with TTLP- or AALP-peptides for 20 min in the presence of 30 nM of the indicated lipid second messengers as described in FIG. 28A (AA: arachidonic acid; LPA: lyso phosphatidic acid; PMA: phorbol 12-myristate 13-acetate; DAG: 1,2-diacylglycerol).
KSR-bound beads were incubated with reaction buffer B plus 10 mM MnCl2, 5 μM ATP and [γ-^32 P]ATP at 22° C. for the period of time indicated in the presence of 0.3 mM synthetic Raf-peptide or substrate peptides specific for other Ser/Thr protein kinases. […] (SEQ ID NO.3). Substitution of glycines and alanines for serines and threonines generated one peptide (termed TTLP-peptide) containing only two potential phosphorylation sites at Thr^268,269 (in bold), […] (SEQ ID NO. 24), and another peptide (termed AALP-peptide; SEQ ID No.6) with no potential phosphorylation sites, […] (SEQ ID No.25). The amino acid sequences of substrate peptides specific for other protein kinases (Joseph et al., 1993) are: […] (SEQ ID NO.26) (PKA); […] (SEQ ID NO.27) (S6 kinase); […] (SEQ ID NO.28)(CK II); […] (SEQ ID NO.29) (CaM kinase II); and […] (SEQ ID NO.30) (PKC). […] Substrate peptides for PKA and PKC were from Sigma (St. Louis, Mo.). The reaction was stopped by addition of a stop solution containing 0.5 M ATP in 90% formic acid. The beads were removed by centrifugation at 5000×g for 2 min and the supernatant was loaded on P81 Whatman filter paper. The filter was air dried and washed in 4 mM Na2 H2 P2 O7, 1 mM acetic acid for one hour. The filter was baked at 90° C. for 10 min and quantified by Cerenkov counting using a Beckman LS 5000TD scintillation counter. In some experiments, samples were separated by C18 reverse-phase chromatography on HPLC (Mathias et al., 1991) to verify the results of the filter assay. Virtually identical results were obtained with both methods.

Compound: CCCCCCCCCCCCC/C=C/[C@@H](O)[C@H](CO)NC(=O)CCCCCCC [C8-ceramide, N-octanoylsphingosine]
- maximal kinase activity, fold of control ([1]; 10 μM C8-cer added to medium): 1.5 fold of control
- effect on EGFR peptide phosphorylation [2]: similarly effective

Compound: CNC[C@H](O)c1ccc(O)c(O)c1 [epinephrine]
- ceramide response (EL-4 cells): failed to elicit a ceramide response

Compound: CCCCCCCCCCCCCCCC(=O)O [palmitic acid]
- effect on EGFR peptide phosphorylation [2]: failed to increase EGFR peptide phosphorylation

Compound: CC1=C(/C=C/C(C)=C/C=C/C(C)=C/C(=O)O)C(C)(C)CCC1 [retinoic acid]
- effect on kinase activity in membranes of stimulated HL-60 cells ([1]; cholera toxin 10 nM, retinoic acid 0.5 μM, butyrate 0.5 mM): not stimulated

Compound: GRGLSLSR [PKA substrate peptide]
- KSR activity towards substrate peptide (KSR): minimal activity

Compound: LSSLRASTSKSGGQK [S6 kinase substrate peptide]
- KSR activity towards substrate peptide (KSR): minimal activity

Compound: PLARTLSVAGLPGK [CaM kinase II substrate peptide]
- KSR activity towards substrate peptide (KSR): minimal activity

Compound: RQRGAGAPNVHMVGAALPVDGRMIE [AALP-peptide]
- phosphorylation of peptide by KSR (KSR): negligible

Compound: RQRGAGAPNVHMVGTTLPVDGRMIE [TTLP-peptide]
- phosphorylation of peptide by KSR (KSR): same extent

Compound: RRREEETEEE [CK II substrate peptide]
- KSR activity towards substrate peptide (KSR): minimal activity

Compound: VRKRTLRRL [PKC substrate peptide]
- KSR activity towards substrate peptide (KSR): minimal activity

Compound: cholera toxin
- effect on kinase activity in membranes of stimulated HL-60 cells [1]: not stimulated

Compound: concanavalin A
- ceramide response (EL-4 cells): failed to elicit a ceramide response

Compound: dihydroceramide
- activation of KSR (KSR): fail to activate KSR

From US6040149A, “Assay for identifying agents which act on the ceramide-activated protein kinase, kinase suppressor of ras, and methods of using said agents” (priority 1997, dated 2000)
